Series [1] is described as follows: Measurement of dissolution ratio of pulverized olmesartan medoxomil (JP Dissolution Test Method 2, Paddle Method). The class given is physicochemical. The following applies: calculated from regression equation in FIG. 1, 30 minutes, JP-2, 200 paddle rpm. As to the method:
According to the Method 2 of the Dissolution Test (Paddle Method) described in the 14th Revised Edition of the Japanese Pharmacopoeia, at 200 paddle revolutions per-minute using 900 mL of Japanese Pharmacopoeia Solution 2 (JP-2) for the test solution, 20 mg of milled olmesartan medoxomil prepared per 1 Bessel was added. The test solution was sampled at 30 minutes after the start of the testing, the sampled test solution was filtered through a membrane filter having a pore diameter of 0.45 μm, and the dissolution ratio of olmesartan medoximil was measured by spectrophotometer. Calculation of the dissolution ratio was conducted based on “absorbance of filtrate at 257 nm-absorbance of filtrate at 338 nm”.

Series [2] in a line: Particle diameter measurement of milled product (HELOS&RODOS dry powder particle size analyzer). The following applies: evaluated by using FIG. 3. The class given is physicochemical. As to the method:
The particle diameter of the milled olmesartan medoxomil obtained in Example (1) was measured under the following conditions. Apparatus: HELOS&RODOS dry powder particle size analyzer Lens: R3 Dispersive pressure: 1.5 bar Trigger condition: 2s-1000ms-k15-0.5% Feeder: VIBRI (feeding: 70%)

A value given as a limit tells only on which side of the number the result lay.

As for `CCCc1nc(C(C)(C)O)c(C(=O)OCc2oc(=O)oc2C)n1Cc1ccc(-c2ccccc2-c2nnn[nH]2)cc1` [olmesartan medoxomil, (5-methyl-2-oxo-1,3-dioxolen-4-yl)methyl 4-(1-hydroxy-1-methylethyl)-2-propyl-1-[2′-(1H-tetrazol-5-yl)biphenyl-4-ylmethyl]imidazole-5-carboxylate], the “dissolution ratio of the drug substance” value was 42.93% in series [1] (desired dissolution ratio of the medicament (20 mg tablet) set to 60%), 50.56% in series [1] (desired dissolution ratio of the medicament (20 mg tablet) set to 65%) and 58.18% in series [1] (desired dissolution ratio of the medicament (20 mg tablet) set to 70%). The “particle diameter at 99% cumulative volume” value in series [2] (required for a medicament which elutes 60% or more) is not above 156 μm; in series [2] (required for a medicament which elutes 65% or more) it was not above 137 μm; in series [2] (required for a medicament which elutes 70% or more), not above 119 μm.

Values taken from patent US20100062070A1, “Pulverzed crystals of olmesartan medoxomil” (DAIICHI SANKYO COMPANY, LIMITED, priority 2007, published 2010).
